Assay results from patent US20210290648A1, “Potentiation of B-Lactam Antibiotics and B-Lactam/B-Lactamase Inhibitor Combinations Against Multidrug and Extensively Drug-Resistant Pseudomonas Aeruginosa Using Non-Ribosomal Tobramycin-Cyclam Conjugates” (University of Manitoba, priority 2018, published 2021).

Key:
PA 114228 = test: Checkerboard combination study / MIC; assay type: cell-based, Pseudomonas aeruginosa; settings: for MICCombination (antibiotic): MIC of antibiotic combined with compound 2; for FICI: antibiotic + compound 2; for MICAntibiotic: antibiotic alone
[1] = tested on: MDR/XDR P. aeruginosa clinical isolates; test: MIC and checkerboard, panel of clinical isolates; assay type: cell-based, Pseudomonas aeruginosa; settings: antibiotic + compound 2 (8.7 μM); resistant P. aeruginosa isolates
PA 101243 = test: Checkerboard combination study / MIC; assay type: cell-based, Pseudomonas aeruginosa; settings: for MICCombination (antibiotic): MIC of antibiotic combined with compound 2; for MICCombination (antibiotic) / FICI / MICAntibiotic / FICAntibiotic: PA 101243; for FICI: antibiotic + compound 2; for MICAntibiotic: antibiotic alone; for FICAntibiotic: with compound 2
WT P. aeruginosa PAO1 = test: Checkerboard combination study / MIC; assay type: cell-based, Pseudomonas aeruginosa; settings: for MIC: Pseudomonas aeruginosa, PAO1, 18 h, read-out: MIC alone; for FICI in the presence of ≤10 μM of 1: antibiotic + compound 1; for MIC of Antibiotics in the presence of ≤10 μM of 1: antibiotic + compound 1 ≤10 μM; for FICI in the presence of ≤10 μM of 2: antibiotic + compound 2; for MIC of Antibiotics in the presence of ≤10 μM of 2: antibiotic + compound 2 ≤10 μM; for FICI in the presence of ≤10 μM of 3: antibiotic + compound 3; for MIC of Antibiotics in the presence of ≤10 μM of 3: antibiotic + compound 3 ≤10 μM; for MIC of antibiotic alone in PAO1: PAO1 wild-type (Table 4)
PA 262 = test: Checkerboard combination study / MIC; assay type: cell-based, Pseudomonas aeruginosa; settings: for MICCombination (antibiotic): MIC of antibiotic combined with compound 2; for FICI: antibiotic + compound 2; for MICAntibiotic: antibiotic alone; for FICAntibiotic: with compound 2
PAO200 = assay type: cell-based, Pseudomonas aeruginosa; settings: for MIC of antibiotic alone in PAO200: PAO200 efflux-deficient
From the text: (§1) PAO200 is a tnexA-rnexB-oprM deletion strain while PAO750 lacks five important RND pumps (McxAB-OprM, MexCD-OprJ, MexEF-OprN, Mex JK, and MexXY) and the outer membrane protein OpmH (46, 47). Some of these pumps are homologues of broad substrate specificities that extrude different classes of antimicrobial agents and confer resistance on P. aeruginosa (48).
(§2) Antimicrobial Susceptibility Assay. The in vitro antimicrobial activity of all compounds/antibiotics against a panel of bacteria was evaluated by microbroth dilution method in accordance with the Clinical and Laboratory Standards Institute (CLSI) guidelines. Overnight grown bacterial cultures were diluted in saline to achieve a 0.5 McFarland turbidity, followed by 1:50 dilution in Mueller-Hinton broth (MHB) for inoculation to a final concentration of approximately 5×10^5CFU/mL. The antimicrobial agents were 2-fold serially diluted in MHB in a 96-well plate and incubated at 37° C. with equal volumes of inoculum for 18 h. The lowest concentration that prevented the visible growth of bacteria was defined as the MIC for each antimicrobial agent. The broth with or without bacterial cells was used as positive or negative control, respectively.
(§3) Checkerboard Assay. Combination studies with different antibiotics were performed in 96-well plates as previously described (22). Briefly, the antibiotic of interest was serially diluted in MHB along the abscissa while the adjuvant (newly synthesized conjugates) was serially diluted in MHB along the ordinate. This creates a 10×7 matrix wherein each well consists of a combination of different antibiotic and adjuvant concentrations. Overnight grown bacterial cultures were diluted in saline to achieve a 0.5 McFarland turbidity, followed by 1:50 dilution in Mueller-Hinton broth (MHB) for inoculation to a final concentration of approximately 5×10^5CFU/mL. Equal volume of this bacterial culture was then added to each well and incubated at 37° C. for 18 h. After incubation, the plates were read on EMax® Plus microplate reader (Molecular Devices, Sunnyvale, Calif., USA) at 590 nm. MIC was recorded as wells with the lowest concentration of drugs with no bacterial growth. The fractional inhibitory concentration (FIC) for each antibiotic was calculated by dividing the MIC of the antibiotic in the presence of adjuvant by the MIC of the antibiotic alone. Similarly, the FIC of adjuvant was calculated by dividing the MIC of the adjuvant in the presence of antibiotic by the MIC of the adjuvant alone. FIC index is the sum of both FICs. FIC indices of <0.5 were deemed synergistic; 0.5-4, no interaction; and >4, antagonistic.

PAO750 = assay type: cell-based, Pseudomonas aeruginosa; settings: for MIC of antibiotic alone in PAO750: PAO750 efflux-deficient
From the text: as §1, §2, §3

PA 260 = test: Checkerboard combination study / MIC; assay type: cell-based, Pseudomonas aeruginosa; settings: for MICCombination (antibiotic): MIC of antibiotic combined with compound 2; for FICI: antibiotic + compound 2; for MICAntibiotic: antibiotic alone; for FICAntibiotic: with compound 2
PA 91433 = test: Checkerboard combination study / MIC; assay type: cell-based, Pseudomonas aeruginosa; settings: for MICCombination (antibiotic): MIC of antibiotic combined with compound 2; for MICCombination (antibiotic) / FICI / MICAntibiotic / FICAntibiotic: PA 91433; for FICI: antibiotic + compound 2; for MICAntibiotic: antibiotic alone; for FICAntibiotic: with compound 2
PA 264 = test: Checkerboard combination study / MIC; assay type: cell-based, Pseudomonas aeruginosa; settings: for MICCombination (antibiotic): MIC of antibiotic combined with compound 2; for FICI: antibiotic + compound 2; for MICAntibiotic: antibiotic alone; for FICAntibiotic: with compound 2
PA 101885 = test: Checkerboard combination study / MIC; assay type: cell-based, Pseudomonas aeruginosa; settings: for MICCombination (antibiotic): MIC of antibiotic combined with compound 2; for FICI: antibiotic + compound 2; for MICAntibiotic: antibiotic alone; for FICAntibiotic: with compound 2
PA 100036 = test: Checkerboard combination study / MIC; assay type: cell-based, Pseudomonas aeruginosa; settings: for MICCombination (antibiotic): MIC of antibiotic combined with compound 2; for FICI: antibiotic + compound 2; for MICAntibiotic: antibiotic alone; for FICAntibiotic: with compound 2
PA 259 = test: Checkerboard combination study / MIC; assay type: cell-based, Pseudomonas aeruginosa; settings: for MICAntibiotic: antibiotic alone
[2] = tested on: Galleria mellonella larvae; test: Galleria mellonella tolerability study; settings: 100 mg/kg; positive control
Method: In vitro and in vivo discordances have been observed in antimicrobial chemotherapy, thus, therapeutic efficacy may not necessarily be reliably extrapolated based on in vitro data alone. […] Colistin (100 mg/kg), an antibiotic well known for its toxicity towards eukaryotes, served as a positive control for this experiment while PBS served as negative control. […] Survivability was scored for a total of 4 days.
In vivo larvae-infection model. In vivo synergistic effects were determined using Galleria mellonella infection model, as previously described (20). Briefly, worms were purchased from The Worm Lady® Live Feeder (ON, Canada), stored in their natural habitat at 16° C., and used within 10 days of delivery. The worms (average weight of 250 mg) were used for tolerability and efficacy studies. Tolerability study was performed by injecting 10 μL of antimicrobial agents only at concentrations equivalent to 100 mg/kg or 200 mg/kg. The worms (ten in each group) were incubated at 37° C. and monitored for 96 h. […] Overnight grown culture of respective MDR P. aeruginosa isolate was standardized to 0.5 McFarland standard and diluted in PBS to a final concentration of […]. 10 μL of this solution (5 CFU) was injected into each worm and incubated for 3 h at 37° C. […] Worms treated with 10 μL PBS or high concentrations of test antibiotics served as negative and positive control, respectively. The worms were incubated at 37° C. in Petri dishes lined with filter paper and scored for survivability every 6 h for up to 48 h. This experiment was repeated to give a total of thirty worms (n=30) in each case. Survival data curves were plotted using Kaplan-Meier survival analysis.

[3] = antibiotic alone, WT PAO1 (Table 2)

## CO/N=C(\C(=O)N[C@@H]1C(=O)N2C(C(=O)O)=C(COC(C)=O)CS[C@H]12)c1csc(N)n1 [Cefotaxime]
PA 114228
  MICCombination (antibiotic): 16 µg/mL
  FICI: <0.14
  MICAntibiotic: 128 µg/mL
[1]
  resistant isolates reaching CLSI clinical breakpoint: four out of ten
PA 101243
  MICCombination (antibiotic): 128 µg/mL
  FICI: <0.50
  MICAntibiotic: 256 µg/mL
  FICAntibiotic: 0.500
WT P. aeruginosa PAO1; + compound 2 ≤8.7 μM, PAO1
  MIC of antibiotic + Compound 2 in PAO1: 4 (4) μg/ml
WT P. aeruginosa PAO1; [3]
  MIC: 16 µg/mL
WT P. aeruginosa PAO1; WT PAO1
  FICI in the presence of ≤10 μM of 1: 0.13
  MIC of Antibiotics in the presence of ≤10 μM of 1: 2 µg/mL
  FICI in the presence of ≤10 μM of 2: 0.26
  MIC of Antibiotics in the presence of ≤10 μM of 2: 4 µg/mL
  FICI in the presence of ≤10 μM of 3: 0.27
  MIC of Antibiotics in the presence of ≤10 μM of 3: 4 µg/mL
WT P. aeruginosa PAO1; antibiotic alone
  MIC of antibiotic alone in PAO1: 16 µg/mL
PA 262
  MICCombination (antibiotic): 32 µg/mL
  FICI: <0.31
  MICAntibiotic: 128 µg/mL
  FICAntibiotic: 0.250
PAO200; + compound 2 ≤8.7 μM, PAO200
  MIC of antibiotic + Compound 2 in PAO200: 4 µg/mL
PAO200
  MIC of antibiotic alone in PAO200: 8 µg/mL
PAO750; + compound 2 ≤8.7 μM, PAO750
  MIC of antibiotic + Compound 2 in PAO750: 2 µg/mL
PAO750
  MIC of antibiotic alone in PAO750: 32 µg/mL
PA 260
  MICCombination (antibiotic): 512 µg/mL
  FICI: <0.53
  MICAntibiotic: 1024 µg/mL
  FICAntibiotic: 0.500
PA 91433
  MICCombination (antibiotic): 8 µg/mL
  FICI: <0.07
  MICAntibiotic: 1024 µg/mL
  FICAntibiotic: 0.008
PA 264
  MICCombination (antibiotic): 512 µg/mL
  FICI: <0.31
  MICAntibiotic: 2048 µg/mL
  FICAntibiotic: 0.250
PA 101885
  MICCombination (antibiotic): 8 µg/mL
  FICI: <0.13
  MICAntibiotic: 128 µg/mL
  FICAntibiotic: 0.063
PA 100036
  MICCombination (antibiotic): 8 µg/mL
  FICI: <0.31
  MICAntibiotic: 32 µg/mL
  FICAntibiotic: 0.250
PA 259; MIC of antibiotic combined with compound 2
  MICCombination (antibiotic): 512 µg/mL
PA 259; antibiotic + compound 2
  FICI: <0.31
PA 259
  MICAntibiotic: 2048 µg/mL
PA 259; with compound 2
  FICAntibiotic: 0.250

## C[C@@H](O)[C@H]1C(=O)N2C(C(=O)O)=C(S[C@@H]3CN[C@H](CNS(N)(=O)=O)C3)[C@H](C)[C@H]12 [Doripenem]
PA 114228
  MICCombination (antibiotic): 1 µg/mL
  FICI: <0.14
  MICAntibiotic: 8 µg/mL
PA 114228; with compound 2
  FICAntibiotic: 0.125
[1]
  resistant isolates reaching CLSI clinical breakpoint: three out of nine
PA 101243
  MICCombination (antibiotic): 8 µg/mL
  FICI: <0.50
  MICAntibiotic: 16 µg/mL
  FICAntibiotic: 0.500
WT P. aeruginosa PAO1; + compound 2 ≤8.7 μM, PAO1
  MIC of antibiotic + Compound 2 in PAO1: 0.5 µg/mL
  fold change of MIC + Compound 2 in PAO1: 2
WT P. aeruginosa PAO1; [3]
  MIC: 1 µg/mL
WT P. aeruginosa PAO1; WT PAO1
  FICI in the presence of ≤10 μM of 1: 0.51
  MIC of Antibiotics in the presence of ≤10 μM of 1: 0.5 µg/mL
  FICI in the presence of ≤10 μM of 2: 0.50
  MIC of Antibiotics in the presence of ≤10 μM of 2: 0.5 µg/mL
  FICI in the presence of ≤10 μM of 3: 0.50
  MIC of Antibiotics in the presence of ≤10 μM of 3: 0.5 µg/mL
WT P. aeruginosa PAO1; antibiotic alone
  MIC of antibiotic alone in PAO1: 1 µg/mL
PA 262
  MICCombination (antibiotic): 4 µg/mL
  FICI: <0.31
  MICAntibiotic: 16 µg/mL
  FICAntibiotic: 0.250
PAO200; + compound 2 ≤8.7 μM, PAO200
  MIC of antibiotic + Compound 2 in PAO200: 0.25 µg/mL
  fold change of MIC + Compound 2 in PAO200: 4
PAO200
  MIC of antibiotic alone in PAO200: 1 µg/mL
PAO750; + compound 2 ≤8.7 μM, PAO750
  MIC of antibiotic + Compound 2 in PAO750: 0.25 µg/mL
  fold change of MIC + Compound 2 in PAO750: 4
PAO750
  MIC of antibiotic alone in PAO750: 1 µg/mL
PA 260
  MICCombination (antibiotic): 8 µg/mL
  FICI: <0.53
  MICAntibiotic: 16 µg/mL
  FICAntibiotic: 0.500
PA 91433
  MICCombination (antibiotic): 1 µg/mL
  FICI: <0.09
  MICAntibiotic: 16 µg/mL
  FICAntibiotic: 0.063
PA 264
  MICCombination (antibiotic): 8 µg/mL
  FICI: <0.51
  MICAntibiotic: 16 µg/mL
  FICAntibiotic: 0.500
PA 101885
  MICCombination (antibiotic): 1 µg/mL
  FICI: <0.27
  MICAntibiotic: 4 µg/mL
  FICAntibiotic: 0.250
PA 100036
  MICCombination (antibiotic): 8 µg/mL
  FICI: <0.56
  MICAntibiotic: 16 µg/mL
  FICAntibiotic: 0.500
PA 259
  MICAntibiotic: >1024 µg/mL

## Colistin
PA 101243; PA101243
  MIC of colistin: 1024 µg/mL
WT P. aeruginosa PAO1; WT PAO1
  FICI in the presence of ≤10 μM of 1: 2.00
  MIC of Antibiotics in the presence of ≤10 μM of 1: 2 µg/mL
  FICI in the presence of ≤10 μM of 2: 2.00
  MIC of Antibiotics in the presence of ≤10 μM of 2: 2 µg/mL
  FICI in the presence of ≤10 μM of 3: 1.02
  MIC of Antibiotics in the presence of ≤10 μM of 3: 1 µg/mL
WT P. aeruginosa PAO1; antibiotic + compounds 1-3 at ≤10 μM (≤16 μg/mL), WT PAO1
  FICI with compounds 1-3: 2
WT P. aeruginosa PAO1; [3]
  MIC alone: Colistin (1) μg/ml
PA 91433; PA91433
  MIC of colistin: 4 µg/mL
[2]
  survival of larvae: 30%
